Values of other authors in patent US8470822B2, “Folate mimetics and folate-receptor binding conjugates thereof” (Purdue Research Foundation, priority 2001, dated 2013).

Test system: high-affinity folate receptor
Settings: 2 μM pteroic acid (100-fold excess); cited from earlier work

Nc1nc2ncc(CNc3ccc(C(=O)O)cc3)nc2c(=O)[nH]1 [pteroic acid]
effect on the binding of folate to the folate receptor: absolutely no effect
